Columns and labels:
Experiment in all cases: relative viability (nuclei count vs DMSO), 5 days (fraction); higher = more cells survive
[1] = tested on: LU99A
Method in brief: (§1)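 Relative viability is defined as nuclei in treated wells over nuclei in vehicle wells. Duplicate plates were run and medians reported. Lung cancer cell lines in 1536-well plates were dosed by pin tool one day after seeding, with one drug or with a fixed anchor-drug dose plus five library-drug doses (not always all listed) in √10 steps, and nuclei were counted after 5 days.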

[2] = tested on: NCI-H1993
Method in brief: as §1

[3] = tested on: LC-2-ad
Method in brief: as §1

[4] = tested on: NCI-H2085
Method in brief: as §1

[5] = tested on: UMC-11
Method in brief: as §1

[6] = tested on: NCI-H2023
Method in brief: as §1

[7] = tested on: NCI-H1651
Method in brief: as §1

[8] = tested on: NCI-H2126
Method in brief: as §1

[9] = tested on: ABC-1
Method in brief: as §1

[10] = tested on: EPLC-272H
Method in brief: as §1

[11] = tested on: COR-L23
Method in brief: as §1

[12] = tested on: NCI-H358
Method in brief: as §1

[13] = tested on: NCI-H838
Method in brief: as §1

[14] = tested on: NCI-H1915
Method in brief: as §1

[15] = tested on: NCI-H650
Method in brief: as §1

[16] = tested on: SW 1573
Method in brief: as §1

[17] = tested on: HARA
Method in brief: as §1

[18] = tested on: PC-14
Method in brief: as §1

[19] = tested on: HCC-78
Method in brief: as §1

[20] = tested on: HCC-15
Method in brief: as §1

[21] = tested on: NCI-H2347
Method in brief: as §1

[22] = tested on: NCI-H1355
Method in brief: as §1

`C=C1C(=O)O[C@@H](CCCCCCCC)[C@@H]1C(=O)O` [C-75] + C[C@@H](Oc1cc(-c2cnn(C3CCNCC3)c2)cnc1N)c1c(Cl)ccc(F)c1Cl [Crizotinib] (partner 1 µM) showed a relative viability ([1]; first compound 0.08 µM) of 0.538, a relative viability ([1]; first compound 0.253 µM) of 0.616 and a relative viability ([1]; first compound 0.8 µM) of 0.49. It also gave a relative viability ([1]; first compound 2.53 µM) of 0.395, a relative viability ([1]; first compound 8 µM) of 0.398 and a relative viability ([2]; first compound 0.08 µM) of 0.862. For the same compound, the relative viability ([2]; first compound 0.253 µM) was 0.991, the relative viability ([2]; first compound 0.8 µM) was 0.891 and the relative viability ([2]; first compound 2.53 µM) was 0.701. For the same compound, the relative viability ([2]; first compound 8 µM) was 0.986, the relative viability ([3]; first compound 0.08 µM) was 0.467 and the relative viability ([3]; first compound 0.253 µM) was 0.467. For the same compound, the relative viability ([3]; first compound 0.8 µM) was 0.369, the relative viability ([3]; first compound 2.53 µM) was 0.446 and the relative viability ([3]; first compound 8 µM) was 0.42. The relative viability ([4]; first compound 0.08 µM) was 0.739, the relative viability ([4]; first compound 0.253 µM) was 0.803 and the relative viability ([4]; first compound 0.8 µM) was 0.878. It also gave a relative viability ([4]; first compound 2.53 µM) of 0.656, a relative viability ([4]; first compound 8 µM) of 0.878 and a relative viability ([5]; first compound 0.08 µM) of 0.688. It also gave a relative viability ([5]; first compound 0.253 µM) of 0.625, a relative viability ([5]; first compound 0.8 µM) of 0.651 and a relative viability ([5]; first compound 2.53 µM) of 0.497. For the same compound, the relative viability ([5]; first compound 8 µM) was 0.461, the relative viability ([6]; first compound 0.08 µM) was 0.654 and the relative viability ([6]; first compound 0.253 µM) was 0.767. It also gave a relative viability ([6]; first compound 0.8 µM) of 0.698, a relative viability ([6]; first compound 2.53 µM) of 0.444 and a relative viability ([6]; first compound 8 µM) of 0.626. It also gave a relative viability ([7]; first compound 0.08 µM) of 0.793, a relative viability ([7]; first compound 0.253 µM) of 0.882 and a relative viability ([7]; first compound 0.8 µM) of 0.852. It also gave a relative viability ([7]; first compound 2.53 µM) of 0.731, a relative viability ([7]; first compound 8 µM) of 0.889 and a relative viability ([8]; first compound 0.08 µM) of 1.04. The relative viability ([8]; first compound 0.253 µM) was 1.07, the relative viability ([8]; first compound 0.8 µM) was 1.01 and the relative viability ([8]; first compound 2.53 µM) was 0.735. It also gave a relative viability ([8]; first compound 8 µM) of 0.972, a relative viability ([9]; first compound 0.08 µM) of 1.29 and a relative viability ([9]; first compound 0.253 µM) of 1.81. The relative viability ([9]; first compound 0.8 µM) was 0.998, the relative viability ([9]; first compound 2.53 µM) was 0.909 and the relative viability ([9]; first compound 8 µM) was 0.882. For the same compound, the relative viability ([10]; first compound 0.08 µM) was 0.86, the relative viability ([10]; first compound 0.253 µM) was 0.994 and the relative viability ([10]; first compound 0.8 µM) was 0.824. For the same compound, the relative viability ([10]; first compound 2.53 µM) was 0.672, the relative viability ([10]; first compound 8 µM) was 0.658 and the relative viability ([11]; first compound 0.08 µM) was 0.669. The relative viability ([11]; first compound 0.253 µM) was 0.613, the relative viability ([11]; first compound 0.8 µM) was 0.57 and the relative viability ([11]; first compound 2.53 µM) was 0.703. The relative viability ([11]; first compound 8 µM) was 0.642, the relative viability ([12]; first compound 0.08 µM) was 0.63 and the relative viability ([12]; first compound 0.253 µM) was 0.696. The relative viability ([12]; first compound 0.8 µM) was 0.59, the relative viability ([12]; first compound 2.53 µM) was 0.565 and the relative viability ([12]; first compound 8 µM) was 0.618. It also gave a relative viability ([13]; first compound 0.08 µM) of 0.786, a relative viability ([13]; first compound 0.253 µM) of 0.561 and a relative viability ([13]; first compound 0.8 µM) of 0.807. The relative viability ([13]; first compound 2.53 µM) was 0.792, the relative viability ([13]; first compound 8 µM) was 0.789 and the relative viability ([14]; first compound 0.08 µM) was 0.924. For the same compound, the relative viability ([14]; first compound 0.253 µM) was 0.914, the relative viability ([14]; first compound 0.8 µM) was 0.879 and the relative viability ([14]; first compound 2.53 µM) was 0.819. It also gave a relative viability ([14]; first compound 8 µM) of 0.804, a relative viability ([15]; first compound 0.08 µM) of 0.679 and a relative viability ([15]; first compound 0.253 µM) of 0.72. It also gave a relative viability ([15]; first compound 0.8 µM) of 0.668, a relative viability ([15]; first compound 2.53 µM) of 0.597 and a relative viability ([15]; first compound 8 µM) of 0.729. For the same compound, the relative viability ([16]; first compound 0.08 µM) was 0.812, the relative viability ([16]; first compound 0.253 µM) was 0.842 and the relative viability ([16]; first compound 0.8 µM) was 0.768. It also gave a relative viability ([16]; first compound 2.53 µM) of 0.809, a relative viability ([16]; first compound 8 µM) of 0.754 and a relative viability ([17]; first compound 0.08 µM) of 1. The relative viability ([17]; first compound 0.253 µM) was 1.15, the relative viability ([17]; first compound 0.8 µM) was 0.944 and the relative viability ([17]; first compound 8 µM) was 1.05. It also gave a relative viability ([18]; first compound 0.08 µM) of 0.836, a relative viability ([18]; first compound 0.253 µM) of 0.905 and a relative viability ([18]; first compound 0.8 µM) of 0.893. For the same compound, the relative viability ([18]; first compound 2.53 µM) was 0.741, the relative viability ([18]; first compound 8 µM) was 0.998 and the relative viability ([19]; first compound 0.08 µM) was 0.358. The relative viability ([19]; first compound 0.253 µM) was 0.338, the relative viability ([19]; first compound 0.8 µM) was 0.36 and the relative viability ([19]; first compound 2.53 µM) was 0.308. It also gave a relative viability ([19]; first compound 8 µM) of 0.4, a relative viability ([20]; first compound 0.08 µM) of 0.82 and a relative viability ([20]; first compound 0.253 µM) of 0.885. The relative viability ([20]; first compound 0.8 µM) was 0.764, the relative viability ([20]; first compound 2.53 µM) was 0.699 and the relative viability ([20]; first compound 8 µM) was 0.835. The relative viability ([21]; first compound 0.08 µM) was 0.735, the relative viability ([21]; first compound 0.253 µM) was 0.752 and the relative viability ([21]; first compound 0.8 µM) was 0.63. For the same compound, the relative viability ([21]; first compound 2.53 µM) was 0.711, the relative viability ([21]; first compound 8 µM) was 0.648 and the relative viability ([22]; first compound 0.08 µM) was 1.05. For the same compound, the relative viability ([22]; first compound 0.253 µM) was 1.01, the relative viability ([22]; first compound 0.8 µM) was 0.97 and the relative viability ([22]; first compound 2.53 µM) was 1.1. The relative viability ([22]; first compound 8 µM) was 1.01.

— the supplement of paper PMC10307832
